From patent US10662477B2, “Biomarkers and methods to predict response to inhibitors and uses thereof” (Millennium Pharmaceuticals, Inc., priority 2012, dated 2020)
Read-outs that look alike come from different tables or passages of the source.

Key:
tumor xenografts = assay: Xenograft models of MLN4924 treatment, average plasma concentration needed for tumor stasis, sensitivity rank; format: in vivo, rats or mice; conditions: for C avg at stasis: average plasma concentration needed to reach tumor stasis; for Sensitivity Rank: rank of 1 is most sensitive, 16 is least sensitive
human melanoma tumors = assay: Melanoma explants (human tumor xenografts) in mice treated with MLN4924, tumor growth; format: in vivo; conditions: subcutaneous treatment
NSCLC patients [1] = assay: BATTLE clinical trial Erlotinib arm, progression-free survival by Erlotinib PLSR model group; format: in vivo, human
Kidney cancer [2] = conditions: phase III clinical trial, cited from earlier work
Kidney cancer [3] = assay: Sorafenib phase III clinical trial on Kidney cancer; format: in vivo, human; conditions: Sorafenib vs. placebo
NSCLC patients [4] = assay: BATTLE clinical trial Sorafenib arm, progression-free survival by Sorafenib PLSR model group; format: in vivo, human

## NS(=O)(=O)OC[C@@H]1C[C@@H](n2ccc3c(N[C@H]4CCc5ccccc54)ncnc32)C[C@@H]1O [MLN4924, ((1S,2S,4R)-4-{4-[(1S)-2,3-dihydro-1H-inden-1-ylamino]-7H-pyrrolo[2,3-d]pyrimidin-7-yl}-2-hydroxycyclopentyl)methyl sulphamate]
Tumor xenografts; A375 xenograft, melanoma
  C avg at stasis: 6.837 µg/mL
Tumor xenografts; A375 xenograft
  Sensitivity Rank: 7
Tumor xenografts; DLD-1 xenograft, colon adenocarcinoma
  C avg at stasis: 17.476 µg/mL
Tumor xenografts; DLD-1 xenograft
  Sensitivity Rank: 16
Tumor xenografts; DU-145 xenograft, prostate cancer
  C avg at stasis: 9.365 µg/mL
Tumor xenografts; DU-145 xenograft
  Sensitivity Rank: 11
Tumor xenografts; HCT116 (grown in mouse) xenograft, colorectal carcinoma
  C avg at stasis: 1.983 µg/mL
Tumor xenografts; HCT116 (grown in mouse) xenograft
  Sensitivity Rank: 2
Tumor xenografts; HCT116 (grown in rat) xenograft, colorectal carcinoma
  C avg at stasis: 1.490 µg/mL
Tumor xenografts; HCT116 (grown in rat) xenograft
  Sensitivity Rank: 1
Tumor xenografts; HL-60 xenograft, promyelocytic leukemia
  C avg at stasis: 2.023 µg/mL
Tumor xenografts; HL-60 xenograft
  Sensitivity Rank: 3
Tumor xenografts; HT29 xenograft, colon adenocarcinoma
  C avg at stasis: 7.171 µg/mL
Tumor xenografts; HT29 xenograft
  Sensitivity Rank: 9
Tumor xenografts; NCI-H69 xenograft, small cell lung cancer
  C avg at stasis: 6.868 µg/mL
Tumor xenografts; NCI-H69 xenograft
  Sensitivity Rank: 8
Tumor xenografts; NCI-H82 xenograft, small cell lung cancer
  C avg at stasis: 5.316 µg/mL
Tumor xenografts; NCI-H82 xenograft
  Sensitivity Rank: 5
Tumor xenografts; NCI-H322M xenograft, non-small cell lung carcinoma
  C avg at stasis: 14.722 µg/mL
Tumor xenografts; NCI-H322M xenograft
  Sensitivity Rank: 14
Tumor xenografts; NCI-H460 xenograft, non-small cell lung carcinoma
  C avg at stasis: 17.070 µg/mL
Tumor xenografts; NCI-H460 xenograft
  Sensitivity Rank: 15
Tumor xenografts; PC3 xenograft, prostate cancer
  C avg at stasis: 5.968 µg/mL
Tumor xenografts; PC3 xenograft
  Sensitivity Rank: 6
Tumor xenografts; PHTX-02B xenograft, Breast cancer
  C avg at stasis: 3.691 µg/mL
Tumor xenografts; PHTX-02B xenograft
  Sensitivity Rank: 4
Tumor xenografts; PHTX-50M xenograft, melanoma
  C avg at stasis: 8.501 µg/mL
Tumor xenografts; PHTX-50M xenograft
  Sensitivity Rank: 10
Tumor xenografts; PHTX-51M xenograft, melanoma
  C avg at stasis: 11.588 µg/mL
Tumor xenografts; PHTX-51M xenograft
  Sensitivity Rank: 13
Tumor xenografts; SKOV3 xenograft, ovarian carcinoma
  C avg at stasis: 9.890 µg/mL
Tumor xenografts; SKOV3 xenograft
  Sensitivity Rank: 12
Human melanoma tumors; melanoma explant 1, tumor growth in mice
  Experimental Result with MLN4924 treatment: Sensitive
Human melanoma tumors; melanoma explant 2, tumor growth in mice
  Experimental Result with MLN4924 treatment: Sensitive
Human melanoma tumors; melanoma explant 3, tumor growth in mice
  Experimental Result with MLN4924 treatment: Sensitive
Human melanoma tumors; melanoma explant 4, tumor growth in mice
  Experimental Result with MLN4924 treatment: Resistant
Human melanoma tumors; melanoma explant 5, tumor growth in mice
  Experimental Result with MLN4924 treatment: Resistant
Human melanoma tumors; melanoma explant 6, tumor growth in mice
  Experimental Result with MLN4924 treatment: Resistant
Human melanoma tumors; melanoma explant 7, tumor growth in mice
  Experimental Result with MLN4924 treatment: Resistant
Human melanoma tumors; melanoma explant 8, tumor growth in mice
  Experimental Result with MLN4924 treatment: Resistant
Human melanoma tumors; melanoma explant 9, tumor growth in mice
  Experimental Result with MLN4924 treatment: Resistant
Human melanoma tumors; melanoma explant 10, tumor growth in mice
  Experimental Result with MLN4924 treatment: Resistant

## C#Cc1cccc(Nc2ncnc3cc(OCCOC)c(OCCOC)cc23)c1 [Erlotinib, N-(3-ethynylphenyl)-6,7-bis(2-methoxyethoxy) quinazolin-4-amine]
NSCLC patients [1]; Erlotinib-resistant patients (Erlotinib PLSR signature), BATTLE Erlotinib arm
  PFS: 1.84 month
NSCLC patients [1]; Erlotinib-sensitive patient group (Erlotinib PLSR signature), BATTLE Erlotinib arm
  median PFS: 3.84 month
NSCLC patients [1]; Erlotinib-sensitive vs Erlotinib-resistant patient group, PFS, p-value 0.09
  Hazard ratio: 0.43

## CNC(=O)c1cc(Oc2ccc(NC(=O)Nc3ccc(Cl)c(C(F)(F)F)c3)cc2)ccn1 [Sorafenib]
Kidney cancer [2]; Sorafenib arm (placebo 84 days)
  median survival: 167 days
Kidney cancer [2]; Sorafenib arm, days converted to months (placebo 2.80)
  median survival: 5.57 months
Kidney cancer [3]
  PFS benefit: 2.77 month
NSCLC patients [4]; marker-insensitive group (Sorafenib model), BATTLE Sorafenib arm
  median PFS survival: 1.87 months
NSCLC patients [4]; marker-sensitive group (Sorafenib model), BATTLE Sorafenib arm
  median PFS survival: 4.53 months
NSCLC patients [4]; marker-sensitive group vs marker-resistant group, BATTLE Sorafenib arm
  PFS survival benefit: 2.66 months
NSCLC patients [4]; marker-sensitive vs marker-resistant group, PFS, p-value 0.006
  Hazard-ratio: 0.32
